Test results published in patent US11034672B1, “Tyrosine kinase inhibitor compositions, methods of making and methods of use” (Black Diamond Therapeutics, Inc., priority 2018, dated 2021).

How the values were obtained:
Type in all cases: cell-based
EGFR V3 [1] = molecular target: T1, EGFR V3 (Homo sapiens, UniProt P00533, DELINS30-297G); assay: BaF3 cell proliferation assay, EGFR V3 (Table A); details: potency code, 3 days, CellTiterGlo, read-out: EGFR V3 (Activity for Inhibiting EGFR)
T1 construct: expressed in transfected cells; host or cells: BaF3 (murine pro-B), retroviral pMXs-IRES-Blasticidin
T1 sequence (P00533 with tags, fused parts or gaps DELINS30-297G): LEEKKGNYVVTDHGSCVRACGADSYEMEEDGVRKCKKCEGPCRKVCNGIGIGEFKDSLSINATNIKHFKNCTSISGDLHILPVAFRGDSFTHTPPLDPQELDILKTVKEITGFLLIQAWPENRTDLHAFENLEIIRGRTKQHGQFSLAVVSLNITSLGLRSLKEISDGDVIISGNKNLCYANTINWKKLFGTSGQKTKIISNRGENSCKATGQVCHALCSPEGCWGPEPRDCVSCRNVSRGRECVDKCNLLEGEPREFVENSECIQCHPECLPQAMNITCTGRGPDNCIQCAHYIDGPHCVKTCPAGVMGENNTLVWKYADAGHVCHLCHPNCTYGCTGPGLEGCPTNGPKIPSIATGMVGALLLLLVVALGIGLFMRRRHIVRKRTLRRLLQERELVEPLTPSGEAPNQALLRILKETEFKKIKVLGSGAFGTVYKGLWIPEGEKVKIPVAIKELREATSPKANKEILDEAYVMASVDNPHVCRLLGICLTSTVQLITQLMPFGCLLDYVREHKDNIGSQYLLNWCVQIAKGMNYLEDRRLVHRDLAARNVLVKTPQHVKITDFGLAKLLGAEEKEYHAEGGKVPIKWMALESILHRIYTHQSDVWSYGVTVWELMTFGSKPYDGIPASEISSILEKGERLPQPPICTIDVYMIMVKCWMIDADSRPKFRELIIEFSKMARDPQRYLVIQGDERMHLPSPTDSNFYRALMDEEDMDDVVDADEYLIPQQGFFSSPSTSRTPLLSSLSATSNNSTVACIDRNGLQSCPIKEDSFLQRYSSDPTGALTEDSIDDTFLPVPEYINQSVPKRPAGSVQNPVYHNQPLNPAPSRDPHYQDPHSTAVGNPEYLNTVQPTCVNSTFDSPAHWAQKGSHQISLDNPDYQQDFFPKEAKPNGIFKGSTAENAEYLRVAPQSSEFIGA
Outline: (§1)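 Proliferation read-out is used in BaF3 cells engineered to express each EGFR or HER2 form; EC50 is derived from it. Transduced populations are selected with Blasticidin, washed in PBS and cultured without IL-3.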

HER2 WT [2] = molecular target: T2, HER2 WT (Homo sapiens, UniProt P04626); assay: Activity for inhibiting HER2 (Table B), HER2 WT
HER2 WT [3] = molecular target: T2, HER2 WT; assay: BaF3 cell proliferation assay, HER2 WT (Table B); details: potency code, 3 days, CellTiterGlo, read-out: HER2 WT (Activity for Inhibiting HER2)
EGFR WT [4] = molecular target: T3, EGFR WT (Homo sapiens, UniProt P00533); assay: Activity for inhibiting EGFR (Table A), EGFR WT; details: read-out: EGFR WT, potency code (IC50)
T3 sequence (P00533 25-1210 N540K): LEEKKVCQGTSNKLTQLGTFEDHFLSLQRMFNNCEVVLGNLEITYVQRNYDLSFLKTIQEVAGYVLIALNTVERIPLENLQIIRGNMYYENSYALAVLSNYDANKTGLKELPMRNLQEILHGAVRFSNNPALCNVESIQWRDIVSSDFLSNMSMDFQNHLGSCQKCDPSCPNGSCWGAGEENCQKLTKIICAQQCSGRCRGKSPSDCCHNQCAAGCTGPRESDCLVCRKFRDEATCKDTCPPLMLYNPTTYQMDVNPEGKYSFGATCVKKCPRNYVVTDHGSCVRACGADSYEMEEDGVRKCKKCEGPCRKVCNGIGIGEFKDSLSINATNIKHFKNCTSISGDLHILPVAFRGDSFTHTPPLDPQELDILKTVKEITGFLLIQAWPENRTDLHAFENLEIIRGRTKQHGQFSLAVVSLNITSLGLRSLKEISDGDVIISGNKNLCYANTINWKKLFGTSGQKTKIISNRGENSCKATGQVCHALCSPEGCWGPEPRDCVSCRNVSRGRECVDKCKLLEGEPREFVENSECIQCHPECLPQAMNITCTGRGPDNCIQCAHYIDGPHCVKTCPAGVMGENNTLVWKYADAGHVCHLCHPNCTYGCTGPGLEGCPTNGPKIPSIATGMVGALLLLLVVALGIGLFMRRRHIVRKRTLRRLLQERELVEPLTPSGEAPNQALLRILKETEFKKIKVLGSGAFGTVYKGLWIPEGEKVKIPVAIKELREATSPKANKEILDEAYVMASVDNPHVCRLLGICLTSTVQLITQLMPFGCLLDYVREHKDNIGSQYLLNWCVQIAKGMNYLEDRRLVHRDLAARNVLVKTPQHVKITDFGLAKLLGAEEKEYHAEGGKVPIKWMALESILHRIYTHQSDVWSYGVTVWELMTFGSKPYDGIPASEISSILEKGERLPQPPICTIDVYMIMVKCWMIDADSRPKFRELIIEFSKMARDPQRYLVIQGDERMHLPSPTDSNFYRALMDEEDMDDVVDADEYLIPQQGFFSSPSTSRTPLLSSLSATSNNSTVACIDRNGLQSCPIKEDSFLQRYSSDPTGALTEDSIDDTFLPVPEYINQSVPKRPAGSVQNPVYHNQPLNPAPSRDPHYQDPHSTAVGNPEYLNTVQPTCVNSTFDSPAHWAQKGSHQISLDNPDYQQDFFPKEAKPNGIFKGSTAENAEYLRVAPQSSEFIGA

EGFR V3 [5] = molecular target: T1, EGFR V3; assay: Activity for inhibiting EGFR (Table A), EGFR V3 (EGFR-Viii); details: read-out: EGFR V3, potency code (IC50)
HER2 S310F [6] = molecular target: T4, HER2 S310F (Homo sapiens, UniProt P04626, S310F); assay: BaF3 cell proliferation assay, HER2 S310F (Table B); details: potency code, 3 days, CellTiterGlo, read-out: HER2 S310F (Activity for Inhibiting HER2)
T4 construct: expressed in transfected cells; host or cells: BaF3 (murine pro-B)
T4 sequence (P04626 23-1255 S310F): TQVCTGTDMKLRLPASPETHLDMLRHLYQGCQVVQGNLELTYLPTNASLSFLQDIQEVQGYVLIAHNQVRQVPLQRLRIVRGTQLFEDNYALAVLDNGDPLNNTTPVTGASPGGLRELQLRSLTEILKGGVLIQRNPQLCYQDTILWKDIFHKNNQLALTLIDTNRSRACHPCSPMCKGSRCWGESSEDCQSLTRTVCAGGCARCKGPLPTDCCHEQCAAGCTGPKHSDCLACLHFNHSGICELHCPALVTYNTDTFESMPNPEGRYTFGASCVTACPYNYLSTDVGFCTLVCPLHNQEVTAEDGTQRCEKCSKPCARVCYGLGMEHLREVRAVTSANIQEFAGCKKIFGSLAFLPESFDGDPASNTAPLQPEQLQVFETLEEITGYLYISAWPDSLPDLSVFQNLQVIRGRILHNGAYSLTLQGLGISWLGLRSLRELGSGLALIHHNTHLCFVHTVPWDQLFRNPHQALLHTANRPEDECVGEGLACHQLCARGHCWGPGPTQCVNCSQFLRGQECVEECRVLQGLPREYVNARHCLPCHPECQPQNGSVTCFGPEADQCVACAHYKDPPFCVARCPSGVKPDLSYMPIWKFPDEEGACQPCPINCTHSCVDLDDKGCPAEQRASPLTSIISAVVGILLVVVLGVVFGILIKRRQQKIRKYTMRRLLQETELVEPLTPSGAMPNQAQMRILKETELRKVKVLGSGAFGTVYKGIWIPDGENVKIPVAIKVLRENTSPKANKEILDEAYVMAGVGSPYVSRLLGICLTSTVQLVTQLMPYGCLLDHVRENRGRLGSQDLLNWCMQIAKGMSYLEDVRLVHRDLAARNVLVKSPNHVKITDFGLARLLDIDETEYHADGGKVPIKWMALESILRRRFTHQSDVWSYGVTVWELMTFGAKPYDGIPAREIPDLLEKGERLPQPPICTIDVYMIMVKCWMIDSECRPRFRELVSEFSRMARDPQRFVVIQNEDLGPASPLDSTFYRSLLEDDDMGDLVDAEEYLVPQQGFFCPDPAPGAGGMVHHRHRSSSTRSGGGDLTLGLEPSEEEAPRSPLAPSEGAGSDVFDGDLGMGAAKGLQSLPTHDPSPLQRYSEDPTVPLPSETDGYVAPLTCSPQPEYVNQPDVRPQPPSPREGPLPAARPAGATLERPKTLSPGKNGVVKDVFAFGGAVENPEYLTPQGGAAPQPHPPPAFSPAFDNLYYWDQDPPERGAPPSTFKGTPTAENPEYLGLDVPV

EGFR WT [7] = molecular target: T3, EGFR WT; assay: BaF3 cell proliferation assay, EGFR WT (Table A); details: potency code, 3 days, CellTiterGlo, read-out: EGFR WT (Activity for Inhibiting EGFR)
Outline: as §1

HER2 S310F [8] = molecular target: T4, HER2 S310F; assay: Activity for inhibiting HER2 (Table B), HER2 S310F; details: read-out: HER2 S310F, potency code (IC50)
Experimental: (§2) EC50 values were determined with the same application.

HER2 YVMA [9] = molecular target: T5, HER2 YVMA (Homo sapiens, UniProt P04626, INS775YVMA); assay: Activity for inhibiting HER2 (Table B), HER2 YVMA; details: read-out: HER2 YVMA, potency code (IC50)
T5 construct: expressed in transfected cells; host or cells: BaF3 (murine pro-B)
T5 sequence (P04626 with tags, fused parts or gaps INS775YVMA): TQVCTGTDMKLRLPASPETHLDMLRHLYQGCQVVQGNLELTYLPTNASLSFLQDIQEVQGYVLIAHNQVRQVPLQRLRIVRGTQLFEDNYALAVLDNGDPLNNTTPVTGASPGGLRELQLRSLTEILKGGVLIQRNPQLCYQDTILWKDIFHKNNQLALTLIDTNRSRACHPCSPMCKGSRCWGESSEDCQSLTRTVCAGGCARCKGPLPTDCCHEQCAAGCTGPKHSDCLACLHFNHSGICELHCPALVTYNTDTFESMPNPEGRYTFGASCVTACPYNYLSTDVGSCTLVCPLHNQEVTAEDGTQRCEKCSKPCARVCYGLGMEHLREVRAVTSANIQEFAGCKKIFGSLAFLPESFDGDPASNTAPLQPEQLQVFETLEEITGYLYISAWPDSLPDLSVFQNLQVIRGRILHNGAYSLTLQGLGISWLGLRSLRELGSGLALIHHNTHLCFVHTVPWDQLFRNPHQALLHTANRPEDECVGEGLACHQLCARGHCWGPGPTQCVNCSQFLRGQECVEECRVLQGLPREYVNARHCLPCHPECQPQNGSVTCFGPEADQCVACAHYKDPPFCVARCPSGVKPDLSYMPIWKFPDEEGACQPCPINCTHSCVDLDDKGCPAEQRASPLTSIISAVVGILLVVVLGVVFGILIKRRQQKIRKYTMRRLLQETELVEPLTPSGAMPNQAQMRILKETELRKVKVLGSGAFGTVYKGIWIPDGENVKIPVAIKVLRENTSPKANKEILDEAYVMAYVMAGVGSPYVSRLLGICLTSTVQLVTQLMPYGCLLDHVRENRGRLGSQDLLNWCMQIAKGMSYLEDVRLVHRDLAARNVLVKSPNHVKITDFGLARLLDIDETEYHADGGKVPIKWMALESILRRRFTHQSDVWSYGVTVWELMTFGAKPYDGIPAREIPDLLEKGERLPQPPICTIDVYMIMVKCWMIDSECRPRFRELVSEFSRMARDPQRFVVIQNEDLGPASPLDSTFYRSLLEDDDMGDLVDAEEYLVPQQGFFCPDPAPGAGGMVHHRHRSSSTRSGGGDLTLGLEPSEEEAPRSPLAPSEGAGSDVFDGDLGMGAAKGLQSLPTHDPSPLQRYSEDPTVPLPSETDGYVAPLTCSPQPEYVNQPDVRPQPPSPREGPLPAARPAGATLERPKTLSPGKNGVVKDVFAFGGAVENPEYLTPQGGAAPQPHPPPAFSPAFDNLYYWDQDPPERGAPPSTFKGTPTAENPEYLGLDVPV
Experimental: as §2

HER2 YVMA [10] = molecular target: T5, HER2 YVMA; assay: BaF3 cell proliferation assay, HER2 YVMA (Table B); details: potency code, 3 days, CellTiterGlo, read-out: HER2 YVMA (Activity for Inhibiting HER2)
[11] = Table B, read-out: HER2 WT, potency code (IC50)
[12] = text lists of compounds, read-out: IC50 value for inhibiting wild-type HER2

Row | IC50 (EGFR V3 [1]) | IC50 (HER2 WT [2]; [11]) | IC50 (HER2 WT [3]) | IC50 (EGFR WT [4]) | IC50 (EGFR V3 [5]) | IC50 (HER2 S310F [6]) | IC50 (EGFR WT [7]) | IC50 (HER2 S310F [8]) | IC50 (HER2 WT [2]; [12]) | IC50 (HER2 YVMA [9]) | IC50 (HER2 YVMA [10]) | Structure (SMILES)
1 | 200 to 300 nM | 100 to 200 nM | 100 to 200 nM | > 1000 nM | 200 to 300 nM | 300 to 500 nM | > 1000 nM | 300 to 500 nM |  |  |  | C=CC(=O)Nc1cc2c(Nc3ccc(OCc4ccccn4)cn3)ncnc2cc1OCCN1CCOCC1 [compound 58]
2 | 100 to 200 nM | 50 to 100 nM | 50 to 100 nM | > 1000 nM | 100 to 200 nM | 50 to 100 nM | > 1000 nM | 50 to 100 nM |  |  |  | C=CC(=O)Nc1cc2c(Nc3ccc(Oc4cccc(Cl)c4)cc3)ncnc2cc1OCCN1CCOCC1 [compound 37]
3 | 100 to 200 nM | 50 to 100 nM | 50 to 100 nM | > 1000 nM | 100 to 200 nM | 100 to 200 nM | > 1000 nM | 100 to 200 nM |  |  |  | C=CC(=O)Nc1cc2c(Nc3ccc(OCc4ccccn4)c(Cl)c3)ncnc2cc1N1CCN2CCC1C2 (centres unmarked) [compound 43]
4 | 30 to 50 nM | 10 to 20 nM | 10 to 20 nM | 300 to 500 nM | 30 to 50 nM | 50 to 100 nM | 300 to 500 nM | 50 to 100 nM | ≤ 20 nM |  |  | C=CC(=O)Nc1cc2c(Nc3ccc(OCc4ccccn4)c(Cl)c3)ncnc2cc1OCC1CCCN1C (centres unmarked) [compound 14]
5 | 100 to 200 nM |  |  | 200 to 300 nM | 100 to 200 nM | 100 to 200 nM | 200 to 300 nM | 100 to 200 nM | ≤ 50 nM | > 1000 nM | > 1000 nM | C=CC(=O)Nc1cc2c(Nc3ccc(OCc4ccccn4)cc3)ncnc2cc1OCCN1CC2CN(C)CC2C1 (centres unmarked) [compound 81]
6 | 200 to 300 nM | 10 to 20 nM | 10 to 20 nM | 300 to 500 nM | 200 to 300 nM | 100 to 200 nM | 300 to 500 nM | 100 to 200 nM | ≤ 20 nM |  |  | C=CC(=O)Nc1cc2c(Nc3ccc(OCc4ccccn4)c(Cl)c3)ncnc2cc1OC1CCNC1 (centres unmarked) [compound 15]
7 | 50 to 100 nM | 100 to 200 nM | 100 to 200 nM | > 1000 nM | 50 to 100 nM | 200 to 300 nM | > 1000 nM | 200 to 300 nM |  |  |  | C=CC(=O)Nc1cc2c(Nc3ccc(Oc4ccc(Cl)cc4)cc3)ncnc2cc1OCCN1CCOCC1 [compound 74]
8 | 100 to 200 nM | 50 to 100 nM | 50 to 100 nM | > 1000 nM | 100 to 200 nM | 500 to 1000 nM | > 1000 nM | 500 to 1000 nM |  |  |  | C=CC(=O)Nc1cc2c(Nc3ccc(OCc4cccc(F)c4)c(Cl)c3)ncnc2cc1N(C)CCN(C)C [compound 1]
9 | 100 to 200 nM | 50 to 100 nM | 50 to 100 nM | > 1000 nM | 100 to 200 nM | 100 to 200 nM | > 1000 nM | 100 to 200 nM |  |  |  | C=CC(=O)Nc1cc2c(Nc3ccc(OCc4ccccn4)c(Cl)c3)ncnc2cc1N1CC2CCN(C)C2C1 (centres unmarked) [compound 49]
10 | 30 to 50 nM |  |  | 500 to 1000 nM | 30 to 50 nM | 30 to 50 nM | 500 to 1000 nM | 30 to 50 nM |  | 300 to 500 nM | 300 to 500 nM | C=CC(=O)Nc1cc2c(Nc3ccc(OCc4cccc(F)n4)c(Cl)c3)ncnc2cc1OCCN1CC(OC)C1 [compound 157]
11 | 100 to 200 nM |  |  | 500 to 1000 nM | 100 to 200 nM | 50 to 100 nM | 500 to 1000 nM | 50 to 100 nM |  | 300 to 500 nM | 300 to 500 nM | C=CC(=O)Nc1cc2c(Nc3ccc(OCc4cccnn4)c(Cl)c3)ncnc2cc1OCCN1CCN(C)CC1 [compound 172]
12 | 200 to 300 nM |  |  | > 1000 nM | 200 to 300 nM | 500 to 1000 nM | > 1000 nM | 500 to 1000 nM |  | > 1000 nM | > 1000 nM | C=CC(=O)Nc1cc2c(Nc3ccc(OCc4ccccn4)c(Cl)c3)ncnc2cc1N1CC(N(C)C)C1 [compound 93, N-(4-((3-chloro-4-(pyridin-2-ylmethoxy)phenyl)amino)-7-(3-(dimethylamino)azetidin-1-yl)quinazolin-6-yl)acrylamide]
13 | 200 to 300 nM |  |  | 500 to 1000 nM | 200 to 300 nM | 300 to 500 nM | 500 to 1000 nM | 300 to 500 nM |  | > 1000 nM | > 1000 nM | C=CC(=O)Nc1cc2c(Nc3ccc(OCc4ccccn4)c(Cl)c3)ncnc2cc1N1CC2(CN(C)C2)C1 [compound 45]
14 | 100 to 200 nM |  |  | 300 to 500 nM | 100 to 200 nM | 50 to 100 nM | 300 to 500 nM | 50 to 100 nM |  | 300 to 500 nM | 300 to 500 nM | C=CC(=O)Nc1cc2c(Nc3ccc(OCc4cccc(F)c4)c(Cl)c3)ncnc2cc1OCCCN1C[C@@H]2C[C@H]1CO2 [compound 159]
15 | 100 to 200 nM |  |  | 200 to 300 nM | 200 to 300 nM | 50 to 100 nM | 200 to 300 nM | 50 to 100 nM |  | 300 to 500 nM | 300 to 500 nM | C=CC(=O)Nc1cc2c(Nc3cc(Cl)c(OCc4cccc(F)c4)cc3F)ncnc2cc1OCCCN1CC(OC)C1 [compound 131]
16 | 30 to 50 nM |  |  | 200 to 300 nM | 30 to 50 nM | 5 to 10 nM | 200 to 300 nM | 5 to 10 nM |  | 10 to 20 nM | 10 to 20 nM | CC#CC(=O)Nc1cc2c(Nc3ccc(OCc4cnccn4)c(Cl)c3)ncnc2cc1OCCCN1CCOCC1 [compound 170, N-(4-((3-chloro-4-(pyrazin-2-ylmethoxy)phenyl)amino)-7-(3-morpholinopropoxy)quinazolin-6-yl)but-2-ynamide]
17 | 50 to 100 nM |  |  | 500 to 1000 nM | 50 to 100 nM | 100 to 200 nM | 500 to 1000 nM | 100 to 200 nM |  | 500 to 1000 nM | 500 to 1000 nM | C=CC(=O)Nc1cc2c(Nc3ccc(OCc4ccccn4)c(Cl)c3)ncnc2cc1OCC12CCC(CC1)N2C [compound 122, N-(4-((3-chloro-4-(pyridin-2-ylmethoxy)phenyl)amino)-7-((7-methyl-7-azabicyclo[2.2.1]heptan-1-yl)methoxy)quinazolin-6-yl)acrylamide]
18 | 50 to 100 nM |  |  | > 1000 nM | 50 to 100 nM | 50 to 100 nM | > 1000 nM | 50 to 100 nM |  | 300 to 500 nM | 300 to 500 nM | C=CC(=O)Nc1cc2c(Nc3ccc(OCc4cccnn4)c(Cl)c3)ncnc2cc1OCCN1CCOCC1 [compound 171]
19 | 30 to 50 nM |  |  | 100 to 200 nM | 30 to 50 nM | 10 to 20 nM | 100 to 200 nM | 10 to 20 nM |  | 50 to 100 nM | 50 to 100 nM | CC#CC(=O)Nc1cc2c(Nc3ccc(OCc4cccnn4)c(Cl)c3)ncnc2cc1OCCCN1CCOCC1 [compound 165, N-(4-((3-chloro-4-(pyridazin-3-ylmethoxy)phenyl)amino)-7-(3-morpholinopropoxy)quinazolin-6-yl)but-2-ynamide]
20 | 50 to 100 nM |  |  | 200 to 300 nM | 50 to 100 nM | 10 to 20 nM | 200 to 300 nM | 10 to 20 nM |  | 30 to 50 nM | 30 to 50 nM | CC#CC(=O)Nc1cc2c(Nc3ccc(OCc4ccccn4)c(Cl)c3)ncnc2cc1C#CC1[C@H]2CN(C)C[C@@H]12 (stereo partly drawn) [compound 107, N-(4-((3-chloro-4-(pyridin-2-ylmethoxy)phenyl)amino)-7-(((1R,5S,6s)-3-methyl-3-azabicyclo[3.1.0]hexan-6-yl)ethynyl)quinazolin-6-yl)but-2-ynamide]
21 | 100 to 200 nM |  |  | 100 to 200 nM | 100 to 200 nM | 30 to 50 nM | 100 to 200 nM | 30 to 50 nM |  | 100 to 200 nM | 100 to 200 nM | C=CC(=O)Nc1cc2c(Nc3ccc(OCc4cccc(F)c4)c(Cl)c3)ncnc2cc1OCCCN1CC(OC)C1 [compound 144]
22 | 30 to 50 nM |  |  | 500 to 1000 nM | 30 to 50 nM | 30 to 50 nM | 500 to 1000 nM | 30 to 50 nM |  | 100 to 200 nM | 100 to 200 nM | C=CC(=O)Nc1cc2c(Nc3ccc(OCc4ccccn4)c(Cl)c3)ncnc2cc1C#CC1CC2(C1)CN(C)C2 [compound 124, N-(4-((3-chloro-4-(pyridin-2-ylmethoxy)phenyl)amino)-7-((2-methyl-2-azaspiro[3.3]heptan-6-yl)ethynyl)quinazolin-6-yl)acrylamide]
